Data published in patent US20230416329A1, “A PEPTIDE WITH DISULFIDE BONDS AND INHIBITORY ACTIVITY AGAINST SERINE PROTEASES, DERIVED HYBRID PEPTIDES THEREOF, AND USES THEREOF” (INSTITUTE OF MATERIA MEDICA , CHINESE ACADEMY OF MEDICAL …, priority 2020, published 2023).
Converted amounts (≈) assume the structure as drawn. Bridge positions count the residues as written; N and C are the ends. Ends that are not written are not given here. Peptide text beside a SMILES is read from it.

How the values were obtained:
[1] = target: T1, interaction of PCSK9-LDLR (Homo sapiens, UniProt Q8NBP7); assay: PCSK9-LDLR in vitro binding assay (inhibitory rate); settings: for inhibition at 50 µM: sample 50 μM, PCSK9 75 ng/mL; for inhibitory activity on the interaction between PCSK9 and LDLR (in words): in vitro
T1 construct: purchased MBL Company, Beijing, China CY-8150
Description: Polypeptide PCSK9_1-14 (SEQ ID NOs: 210-223) is dissolved in pure water or DMSO. 85 μL reaction buffer, 5 μL 1 mM polypeptide sample and 10 μL 750 ng/mL PCSK9 protein was pre-incubated at room temperature for 20 minutes before being added to a 96 well plate. The OD450/540 nm value was measured according to the instructions of the PCSK9-LDLR in Vitro Binding Assay Kit (CY-8150, MBL Company, Beijing, China). Solvent control: replace polypeptide with 5 μL solvent. In 100 μL reaction system, the final concentration of the polypeptide and PCSK9 is 50 μM and 75 ng/mL, respectively.
Inhibition rate of polypeptide (%)=(OD450/540 nm(solvent control)−OD450/540 nm (sample))/OD450/540 nm(solvent control)×100

[2] = system: P407-induced hyperlipidemia mice; assay: Subcutaneous injection of PCSK9 inhibitory peptide, serum total cholesterol in P407-induced hyperlipidemia mice; type: in vivo, mouse; settings: for TC 30 min: 30 min after administration; for TC 60 min: 60 min after administration; for TC 90 min: 90 min after administration
Description: The experimental peptide sample was prepared using PEG400 with a final concentration of […], and the final concentration of PEG400 is 20% (w/v). Normal ICR mice were fasted overnight with water ad libitum. The next day, all of the mice were randomly divided into model control group (Con) and polypeptide administration group (2 μmol/kg) according to body weight. Then, all of the mice were intraperitoneally injected with P407 (500 mg/kg) and fed with feed 2 hours later. Six mice were taken as a normal control group (Nor). After 24 hours, the mice in Con were subcutaneously injected with saline containing 20% PEG400, and the mice in the treatment group were given peptides. Then, the blood was taken at different time points after administration to determine the serum total cholesterol (TC) level. In consideration of the complexity of factors affecting serum LDL-C levels, especially the differences between single and long-term administration, the in vivo activity of PCSK9 inhibitory peptide is mainly observed for changes in serum TC levels.

[3] = target: elastase (Sus scrofa, UniProt P00772); assay: in vitro; settings: for remaining at 0.025 h, 60 μM / remaining at 0.05 h, 60 μM / remaining at 0.075 h, 60 μM / remaining at 0.1 h, 60 μM / remaining at 0.15 h, 60 μM / remaining at 0.25 h, 60 μM / remaining at 0.5 h, 60 μM / remaining at 1 h, 60 μM: isolated enzyme elastase, pH 8, Residual peak area (%)/elastase
Chain of elastase (P00772 27-266): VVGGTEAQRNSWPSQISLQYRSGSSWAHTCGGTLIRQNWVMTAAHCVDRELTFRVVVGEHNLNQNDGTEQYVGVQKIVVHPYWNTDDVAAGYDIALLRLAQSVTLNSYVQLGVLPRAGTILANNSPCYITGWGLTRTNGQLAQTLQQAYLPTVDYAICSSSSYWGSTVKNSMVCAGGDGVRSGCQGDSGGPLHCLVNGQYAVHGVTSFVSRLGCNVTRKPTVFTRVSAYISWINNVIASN
Outline: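 Peptides and elastase (0.5 μg/μL solution) each pre-warmed 5 min at 37° C, then mixed; aliquots taken at 1.5 to 60.0 min and quenched with 10% TFA. Remaining intact peptide quantified as RP-HPLC peak area.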

[4] = target: chymotrypsin (Bos taurus, UniProt P00766); assay: in vitro; settings: for remaining at 0.025 h, 60 μM / remaining at 0.05 h, 60 μM / remaining at 0.075 h, 60 μM / remaining at 0.1 h, 60 μM / remaining at 0.15 h, 60 μM / remaining at 0.25 h, 60 μM / remaining at 0.5 h, 60 μM / remaining at 1 h, 60 μM: isolated enzyme chymotrypsin, pH 7.8, Residual peak area (%)/chymotrypsin
Outline: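 Peptide and 0.05 μg/μL chymotrypsin were preincubated at 37 °C for 5 min, then mixed. Aliquots taken from 1.5 up to 60.0 min were quenched with 10% TFA, and remaining peptide was measured as RP-HPLC peak area.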

[5] = target: T2, trypsin (Bos taurus, UniProt P00760); assay: in vitro
T2 sequence (P00760 24-246): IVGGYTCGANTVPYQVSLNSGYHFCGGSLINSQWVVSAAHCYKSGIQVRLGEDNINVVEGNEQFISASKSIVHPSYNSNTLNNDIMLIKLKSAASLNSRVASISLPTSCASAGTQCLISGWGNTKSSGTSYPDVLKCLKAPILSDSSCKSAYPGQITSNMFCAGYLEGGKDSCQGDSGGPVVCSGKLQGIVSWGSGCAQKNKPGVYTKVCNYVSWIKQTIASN
Outline: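 Peptides were preincubated for 5 min at 37 °C and then digested with 0.05 μg/μL trypsin solution (stock). Remaining intact peptide was quantified as RP-HPLC peak area.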

[6] = serum, subcutaneous 2 μmol/kg, mean ± sd

| inhibition at 50 µM [1] [%] | Residual peak area (%)/elastase [3] [%] | remaining at 0.025 h, 60 μM [3] [%] | remaining at 0.05 h, 60 μM [3] [%] | remaining at 0.075 h, 60 μM [3] [%] | remaining at 0.1 h, 60 μM [3] [%] | remaining at 0.15 h, 60 μM [3] [%] | remaining at 0.25 h, 60 μM [3] [%] | remaining at 0.5 h, 60 μM [3] [%] | remaining at 1 h, 60 μM [3] [%] | Residual peak area (%)/chymotrypsin [4] [%] | remaining at 0.025 h, 60 μM [4] [%] | remaining at 0.05 h, 60 μM [4] [%] | remaining at 0.075 h, 60 μM [4] [%] | remaining at 0.1 h, 60 μM [4] [%] | Molecule | TC 30 min [2, 6] [µg/mL] | TC 60 min [2, 6] [µg/mL] | TC 90 min [2, 6] [µg/mL] | stability towards elastase hydrolysis (in words) [3] | stability towards chymotrypsin hydrolysis (in words) [4] | other results |
| --- | --- | --- | --- | --- | --- | --- | --- | --- | --- | --- | --- | --- | --- | --- | --- | --- | --- | --- | --- | --- | --- |
| 26 ± 10 | 100.0 ± 0.0 | 95.4 ± 0.9 | 90.6 ± 2.4 | 83.3 ± 1.8 | 85.5 ± 2.7 | 79.6 ± 0.8 | 66.8 ± 0.8 | 52.9 ± 1.5 | 28.9 ± 0.7 | 100.0 ± 0.0 | 82.3 ± 5 | 80.7 ± 3.3 | 80.1 ± 2 | 79.1 ± 5.6 | CC(C)C[C@H](NC(=O)[C@H](Cc1ccc(O)cc1)NC(=O)[C@H](CCC(=O)O)NC(=O)[C@H](CCC(=O)O)NC(=O)[C@H](Cc1c[nH]c2ccccc12)NC(=O)[C@H](CO)NC(=O)[C@@H](NC(=O)[C@H](Cc1ccccc1)NC(=O)[C@@H](NC(=O)[C@@H](N)[C@@H](C)O)C(C)C)[C@@H](C)O)C(=O)N[C@@H](CC(=O)O)C(=O)N[C@@H](Cc1c[nH]c2ccccc12)C(=O)N[C@H](C(=O)O)C(C)C [PCSK9_1, reference compound] | 3925 ± 1330 (≈ 2340 µM) | 3350 ± 1117 (≈ 2000 µM) | 3832 ± 1259 (≈ 2290 µM) | easily degraded by chymotrypsin and elastase | easily degraded by chymotrypsin and elastase | serum total cholesterol (TC) level after subcutaneous injection (in words) ([2]; 2 μmol/kg single s.c., P407-induced hyperlipidemia mice): little effect on lowering total cholesterol; TC 120 min ([2]; serum, subcutaneous 2 μmol/kg, 120 min after administration, mean ± sd): 370.4 ± 122.3 mg/dL; remaining at 0.15 h, 60 μM [4]: 75.5 ± 1.6%; remaining at 0.25 h, 60 μM [4]: 71.2 ± 2.4%; remaining at 0.5 h, 60 μM [4]: 62.7 ± 2.6%; remaining at 1 h, 60 μM [4]: 47.7 ± 2%; stability towards trypsin hydrolysis (in words) [5]: stable towards trypsin |
| 87 ± 1.1 | 100.0 ± 0.0 | 62.9 ± 4.8 | 59.3 ± 10.9 | 56.4 ± 5.3 | 55.3 ± 6.8 | 67.8 ± 9.3 | 48.9 ± 9.4 | 39.6 ± 1.2 | 48.3 ± 9.4 | 100.0 ± 0.0 | 59.9 ± 8.2 | 47.1 ± 8 | 33.6 ± 3 | 33.9 ± 3.2 | CC[C@H](C)[C@@H]1NC(=O)[C@@H]2CCCN2C(=O)[C@@H]2CCCN2C(=O)[C@H]([C@@H](C)CC)NC(=O)[C@H](CO)NC(=O)[C@H](CCCCN)NC(=O)[C@H]([C@@H](C)O)NC(=O)[C@H](C)NC(=O)[C@H](CCCNC(=N)N)NC(=O)CNC(=O)[C@@H](NC(=O)[C@@H](NC(=O)[C@H](Cc2ccc(O)cc2)NC(=O)[C@H](CC(=O)O)NC(=O)[C@H](CC(C)C)NC(=O)[C@H](Cc2ccc(O)cc2)NC(=O)[C@H](CCC(=O)O)NC(=O)[C@H](CCC(=O)O)NC(=O)[C@@H](N)Cc2c[nH]c3ccccc23)C(C)C)CSSC[C@@H](C(=O)N[C@@H](Cc2ccccc2)C(=O)NCC(=O)N[C@H](C(=O)N[C@H](C(=O)N[C@@H](Cc2ccccc2)C(=O)N[C@H](C(=O)N[C@@H](CO)C(=O)O)[C@@H](C)O)C(C)C)[C@@H](C)O)NC1=O [PCSK9_6] (H-WEEYLDYVCGRATKSIPPICFGTVFTS-OH; disulfide 9-20) | – | – | – | certain inhibitory effects on the other two proteases chymotrypsin and elastase | certain inhibitory effects on the other two proteases chymotrypsin and elastase | remaining at 0.15 h, 60 μM [4]: 25.9 ± 3.3%; remaining at 0.25 h, 60 μM [4]: 14.5 ± 0.8%; remaining at 0.5 h, 60 μM [4]: 2.2 ± 0.1%; remaining at 1 h, 60 μM [4]: 1 ± 0.9% |
| – | – | – | – | – | – | – | – | – | – | – | – | – | – | – | Thr-Val-Phe-Thr-Ser-Trp-Glu-Glu-Ala-Leu-Asp-Trp-Val-Gly-Ile-Cys-Thr-Ala-Ser-Ile-Pro-Pro-Ile-Cys-Gln (TVFTSWEEALDWVGICTASIPPICQ-OH; disulfide 16-24 (inferred)) [PCSK9_2EC] | 2859 ± 535 | 2853 ± 487 | 2757 ± 475 | – | – | inhibitory activity on the interaction between PCSK9 and LDLR (in words) [1]: good inhibitory activity on the interaction between PCSK9 and LDLR; inhibitory activity on the interaction between PCSK9 and LDLR (in words) ([1]; listed as SEQ ID NO: 225): good inhibitory effects in vitro; TC 15 min ([2]; serum, subcutaneous 2 μmol/kg, 15 min after administration, mean ± sd): 2954 ± 455 µg/mL |
